Source: article PMC10761396, “Evaluation of new alternative methods for the identification of estrogenic, androgenic and steroidogenic effects: a comparative in vitro/in silico study” (Archives of Toxicology, 2023)
Entries after “also recorded” stand apart in the source; their conditions may differ. Where two headings read alike, the source gives them in different places.

Experiments:
[1] = tested on: AR; design: method as in ToxCast; details: ref ToxCast, cited from earlier work; for ToxCast conclusion from assays result: AR sheet; for ToxCast 1: (Active assays), number of positive assays / assays run: ToxCast AR assays
[2] = tested on: H295R cells; experiment: H295R steroidogenesis assay (oestrogen and androgen production); assay type: cell-based, human; details: for minimal effective concentration: Homo sapiens, NCI-H295R, 48 h
Method: The in vitro H295R Steroidogenesis Assay is based on the human adenocarcinoma cell line, NCI-H295R, in which the human steroidogenesis pathway is fully functional (OECD 2022). The effect of the test chemical on the production of 17β-estradiol and testosterone is measured using ERα CALUX and AR CALUX technology.
The test chemical was tested in two independent assays, each in triplicate.

[3] = tested on: ER; experiment: ToxCast ER assays and final ToxCast call; details: for Final "true" call (ToxCast) ER: from active ToxCast assays, cytotoxicity, ToxCast Pathway Model and CERAPP Potency Level; for ToxCast result (ER): overall call from ToxCast data (Supplementary Table 2)
Outline: (§1)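 Final calls came from EPA ToxCast high-throughput data, weighing active-flagged assays against cytotoxicity levels. ER calls also used the ToxCast Pathway Model and CERAPP potency level; AR calls used the ToxCast AR Pathway Model.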

[4] = tested on: aromatase; experiment: ToxCast aromatase assays (TOX21_Aromatase_Inhibition) and final ToxCast call; assay type: cell-based; details: for Final "true" call (ToxCast) Aromatase inhibition: from ToxCast assays; for ToxCast result: aromatase overall ToxCast call
Outline: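 MCF-7 cells exposed to test chemical for 24 h; aromatase activity read indirectly as luciferase from an oestrogen response element driven by oestradiol–ER binding, so a decrease may reflect aromatase inhibition or ER blockade. Final call weighs active assays against cytotoxicity levels.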

[5] = molecular target: human AR (Homo sapiens, UniProt P10275); experiment: AR radioligand ([3H]methyltrienolone) receptor-binding assay
Sequence of human AR (P10275 whole entry): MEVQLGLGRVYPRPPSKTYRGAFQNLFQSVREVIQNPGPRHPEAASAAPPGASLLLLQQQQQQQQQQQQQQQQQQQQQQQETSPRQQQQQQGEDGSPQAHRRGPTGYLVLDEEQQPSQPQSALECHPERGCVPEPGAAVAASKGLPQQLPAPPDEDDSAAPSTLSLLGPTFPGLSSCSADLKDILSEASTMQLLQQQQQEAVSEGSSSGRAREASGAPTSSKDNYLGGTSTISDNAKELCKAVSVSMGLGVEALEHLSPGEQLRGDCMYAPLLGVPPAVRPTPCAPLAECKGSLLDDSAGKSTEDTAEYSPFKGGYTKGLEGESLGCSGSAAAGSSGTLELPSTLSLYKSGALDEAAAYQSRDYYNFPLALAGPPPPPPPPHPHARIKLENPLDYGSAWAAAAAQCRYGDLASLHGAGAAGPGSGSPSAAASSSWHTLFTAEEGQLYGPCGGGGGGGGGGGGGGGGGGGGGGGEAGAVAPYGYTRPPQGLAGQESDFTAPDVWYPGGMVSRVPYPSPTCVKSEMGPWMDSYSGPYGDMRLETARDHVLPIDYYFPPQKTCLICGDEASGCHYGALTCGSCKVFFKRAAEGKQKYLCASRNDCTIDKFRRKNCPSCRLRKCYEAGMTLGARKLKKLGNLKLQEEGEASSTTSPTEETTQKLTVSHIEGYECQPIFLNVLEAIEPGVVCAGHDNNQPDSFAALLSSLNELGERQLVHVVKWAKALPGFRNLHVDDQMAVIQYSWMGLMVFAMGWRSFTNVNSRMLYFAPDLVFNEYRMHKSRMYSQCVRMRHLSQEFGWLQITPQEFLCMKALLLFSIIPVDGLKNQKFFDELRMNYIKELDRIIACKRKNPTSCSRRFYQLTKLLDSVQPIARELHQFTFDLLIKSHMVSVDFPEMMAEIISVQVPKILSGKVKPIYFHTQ
Method: Binding to ER and AR was conducted using standard methods for radioligand assays (Kurata et al. [2005]; Zava et al. [1979]).
The chemicals were tested for their ability to bind to different targets. In radioligand assays, targets included the binding affinity to human (non-selective) ER and human AR (Kurata et al. 2005; Zava et al. 1979). Chemicals were incubated at 10 µM with cells overexpressing ER or AR for 24 h at 4°C, after which, the binding of the radiolabeled ligand ([^3H]estradiol for ER and [^3H]methyltrienolone for AR) was measured by liquid scintillation counting. An increase or decrease higher than 50% were considered to represent significant effects. […] Receptor binding was calculated as a % inhibition of the binding of a radioactively labeled ligand specific for each target.
Each test chemical was tested in a single assay in duplicate.

[6] = tested on: ER; design: method as in US EPA ToxCast; details: ref US EPA ToxCast, cited from earlier work; for ToxCast 1: (Active assays), ER assay listed as active: each listed assay name = active-flagged assay
[7] = tested on: AR; experiment: ToxCast AR assays and final ToxCast call; details: for Final "true" call (ToxCast): AR effects, from active assays, cytotoxicity and pathway model; for ToxCast result: AR overall call from Supplementary Table 4; for Final "true" call (ToxCast) AR: from ToxCast assays and ToxCast Pathway Model
Outline: as §1

[8] = tested on: aromatase; design: method as in US EPA ToxCast; details: ref US EPA ToxCast, cited from earlier work; for ToxCast (assays Comments), efficacy: borderline: less than 50% efficacy
[9] = tested on: ER; design: method as in Mansouri et al. 2016; details: ref Mansouri et al. 2016; cited from earlier work
[10] = read-out: Steroidogenesis Androgenicity LEC
[11] = read-out: Steroidogenesis Estrogenicity LEC

Row | Structure (SMILES) | ToxCast conclusion from assays result [1] | minimal effective concentration [2, 10] [µM] | Final "true" call (ToxCast) ER [3] | ToxCast result (ER) [3] | Final "true" call (ToxCast) Aromatase inhibition [4] | AR binding outcome [5] | ToxCast 1: (Active assays), positive/total ER assays [6] | ToxCast conclusion from assays result [6] | Final "true" call (ToxCast) [7] | ToxCast result [7] | Final "true" call (ToxCast) AR [7] | ToxCast (Aromatase assays), positive/total [8] | CERAPP Potency Level [9] | ToxCast 1: (Active assays), number of positive assays / assays run [1] | minimal effective concentration [2, 11] [µM] | ToxCast result [4] | further results
1 | CC(C)(C)CC(C)(C)c1ccc(O)cc1 [4-TO, 4-tert-octylphenol] | Endocrine Disruption Potential.Significant Estrogen Receptor activity seen | > 1 | Positive for agonism | ER agonist only | Inconclusive | significant binding | 20/21 positive | Endocrine Disruption Potential.Significant Estrogen Receptor activity seen | Positive for antagonism | AR antagonist only | Positive for antagonism | 2/2 positive | Weak agonist & strong antagonist |  |  |  | inhibition at 10 µM ([5]; read-out: inhibition of control specific binding to the AR): 10%; ToxCast (assays Comments), efficacy [8]: 31.35%; ToxCast (assays Comments), efficacy ([8]; listed as 4-tert-Octylphenol): Boarderline: less than 50% efficacy (31.35%); ToxCast (Aromatase assays), assay listed as active ([8]; each listed assay name = active assay): TOX21_Aromatase_Inhibition; also recorded: TOX21_Aromatase_Inhibition_viability
2 | CCCCN(CCCC)c1ccc(C(=O)c2ccccc2C(=O)O)c(O)c1 [DBABA, 2-[4-(dibutylamino)-2-hydroxybenzoyl]benzoic acid] | Endocrine Disruption Potential.Significant Estrogen Receptor activity seen | > 10 | Inconclusive |  | Negative | did not bind to the AR | 2/6 positive | Endocrine Disruption Potential.Significant Estrogen Receptor activity seen | Negative | Negative | Negative | 0/2 positive | Negative | 2/8 positive | > 10 | Negative | ToxCast 1: (assays Comments) ([1]; TOX21_AR_BLA_Antagonist_ratio): Only highest concentration above the baseline; efficacy (assays Comments) ([1]; TOX21_AR_BLA_Antagonist_viability): Boarderline: less than 50% efficacy (26.5%); ToxCast 1: (Active assays), ER assay listed as active ([6]; assay TOX21_ERa_BLA_Antagonist_ratio): TOX21_ERa_BLA_Antagonist_ratio; ToxCast 1: (Active assays), ER assay listed as active ([6]; assay TOX21_ERa_BLA_Antagonist_viability): TOX21_ERa_BLA_Antagonist_viability
3 | O=c1c(-c2ccc(O)cc2)coc2cc(O)ccc12 [Daidzein, daidzein] | Endocrine Disruption Potential.Significant Estrogen Receptor activity seen | 0.794 | Positive for agonism and antagonism | ER agonist and antagonist | Negative | did not bind to the AR |  | Endocrine Disruption Potential.Significant Estrogen Receptor activity seen | Inconclusive |  |  | 0/2 positive | Weak agonist & strong antagonist | 2/15 positive | > 3.16 | Negative | efficacy (assays Comments) ([1]; TOX21_AR_LUC_MDAKB2_Agonist): Boarderline: less than 50% efficacy (20.8%); LEC, androgen production ([2]; decrease): 0.77 µM; androgen production, fold of control ([2]; highest concentration tested, 100 µM): 0.06 fold of control
4 | C[C@]12CCC(=O)C[C@@H]1CC[C@@H]1[C@@H]2CC[C@@]2(C)[C@H]1CC[C@]2(C)O [Mestanolone, mestanolone, reference compound] | Endocrine Disruption Potential.Significant Estrogen Receptor activity seen | > 0.00316 | Positive for agonism and antagonism | ER agonist and antagonist | Negative |  | 2/6 positive | Endocrine Disruption Potential.Significant Estrogen Receptor activity seen | Positive for agonism | AR agonist only | Positive for agonism | 0/2 positive | Weak agonist & strong antagonist | 2/6 positive | > 0.1 | Negative | ToxCast 1: (assays Comments) ([1]; TOX21_AR_BLA_Agonist_ratio): High active; ToxCast 1: (assays Comments) ([1]; TOX21_AR_LUC_MDAKB2_Agonist): High active; ToxCast 1: (Comments) ([6]; for the assay named in the same line): High active
